Read-outs that look alike come from different tables or passages of the source.
Tests used:
Test in all cases: Test C pre/postemergence
Type in all cases: in vivo
[1] = tested on: bermudagrass (Cynodon dactylon); settings: Cynodon dactylon; for pest or weed control at 62 g/ha: 62 g ai/ha; for pest or weed control at 125 g/ha: 125 g ai/ha; for pest or weed control at 250 g/ha: 250 g ai/ha; for pest or weed control at 500 g/ha: 500 g ai/ha
Method in brief: (§1)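 Rating scale 0–100: 0 means no effect, 100 complete control; taken visually 12 to 14 days post-treatment versus controls. Pre- and postemergence greenhouse applications, postemergence at 1- to 4-leaf stage, non-phytotoxic solvent with surfactant as carrier.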

[2] = tested on: goosegrass (Eleusine indica); settings: Eleusine indica; for pest or weed control at 62 g/ha: 62 g ai/ha; for pest or weed control at 125 g/ha: 125 g ai/ha; for pest or weed control at 250 g/ha: 250 g ai/ha; for pest or weed control at 500 g/ha: 500 g ai/ha
Method in brief: as §1

soybean (Glycine max) = settings: Glycine max; for plant injury at 62 g/ha: 62 g ai/ha; for plant injury at 125 g/ha: 125 g ai/ha; for plant injury at 250 g/ha: 250 g ai/ha; for plant injury at 500 g/ha: 500 g ai/ha
Method in brief: as §1

[3] = tested on: pigweed (Amaranthus retroflexus); settings: Amaranthus retroflexus; for pest or weed control at 62 g/ha: 62 g ai/ha; for pest or weed control at 125 g/ha: 125 g ai/ha; for pest or weed control at 250 g/ha: 250 g ai/ha; for pest or weed control at 500 g/ha: 500 g ai/ha
Method in brief: as §1

[4] = tested on: cocklebur (Xanthium strumarium); settings: Xanthium strumarium; for pest or weed control at 62 g/ha: 62 g ai/ha; for pest or weed control at 125 g/ha: 125 g ai/ha; for pest or weed control at 250 g/ha: 250 g ai/ha; for pest or weed control at 500 g/ha: 500 g ai/ha
Method in brief: as §1

[5] = tested on: common (oilseed) sunflower (Helianthus annuus); settings: Helianthus annuus, pre-emergence, Preemergence, read-out: Plant response rating, Sunflower
Method in brief: as §1

kochia (Kochia scoparia) = settings: Bassia scoparia, post-emergence, Postemergence
Method in brief: as §1

[6] = tested on: johnsongrass (Sorghum halepense); settings: Sorghum halepense; for pest or weed control at 62 g/ha: 62 g ai/ha; for pest or weed control at 125 g/ha: 125 g ai/ha; for pest or weed control at 250 g/ha: 250 g ai/ha; for pest or weed control at 500 g/ha: 500 g ai/ha
Method in brief: as §1

[7] = tested on: eastern black nightshade (Solanum ptycanthum); settings: Solanum, pre-emergence, Preemergence, read-out: Plant response rating, Nightshade
Method in brief: as §1

[8] = tested on: velvetleaf (Abutilon theophrasti); settings: Abutilon theophrasti; for pest or weed control at 62 g/ha: 62 g ai/ha; for pest or weed control at 125 g/ha: 125 g ai/ha; for pest or weed control at 250 g/ha: 250 g ai/ha; for pest or weed control at 500 g/ha: 500 g ai/ha
Method in brief: as §1

[9] = tested on: lambsquarters (Chenopodium album); settings: Chenopodium album; for pest or weed control at 62 g/ha: 62 g ai/ha; for pest or weed control at 125 g/ha: 125 g ai/ha; for pest or weed control at 250 g/ha: 250 g ai/ha; for pest or weed control at 500 g/ha: 500 g ai/ha
Method in brief: as §1

[10] = tested on: common ragweed (Ambrosia elatior); settings: Ambrosia artemisiifolia; for pest or weed control at 62 g/ha: 62 g ai/ha; for pest or weed control at 125 g/ha: 125 g ai/ha; for pest or weed control at 250 g/ha: 250 g ai/ha; for pest or weed control at 500 g/ha: 500 g ai/ha
Method in brief: as §1

[11] = post-emergence, Postemergence, scale 0 to 100 (0 no effect, 100 complete control), read-out: Bermudagrass plant response rating
[12] = post-emergence, Postemergence, scale 0 to 100, read-out: Plant response rating, Bermudagrass
[13] = pre-emergence, Preemergence, scale 0 to 100, read-out: Plant response rating, Bermudagrass
[14] = post-emergence, Postemergence, scale 0 to 100 (0 no effect, 100 complete control), read-out: Goosegrass plant response rating
[15] = post-emergence, Postemergence, scale 0 to 100, read-out: Plant response rating, Goosegrass
[16] = pre-emergence, Preemergence, scale 0 to 100, read-out: Plant response rating, Goosegrass
[17] = post-emergence, Postemergence, scale 0 to 100 (0 no effect, 100 complete control), read-out: Soybean plant response rating
[18] = post-emergence, Postemergence, scale 0 to 100, read-out: Plant response rating, Soybean
[19] = pre-emergence, Preemergence, scale 0 to 100, read-out: Plant response rating, Soybean
[20] = post-emergence, Postemergence, scale 0 to 100 (0 no effect, 100 complete control), read-out: Pigweed plant response rating
[21] = post-emergence, Postemergence, scale 0 to 100, read-out: Plant response rating, Pigweed
[22] = pre-emergence, Preemergence, scale 0 to 100, read-out: Plant response rating, Pigweed
[23] = post-emergence, Postemergence, scale 0 to 100 (0 no effect, 100 complete control), read-out: Cocklebur plant response rating
[24] = post-emergence, Postemergence, scale 0 to 100, read-out: Plant response rating, Cocklebur
[25] = pre-emergence, Preemergence, scale 0 to 100, read-out: Plant response rating, Cocklebur
[26] = 62 g ai/ha, scale 0 to 100, 0 no effect, 100 complete control
[27] = post-emergence, Postemergence, scale 0 to 100 (0 no effect, 100 complete control), read-out: Johnsongrass plant response rating
[28] = post-emergence, Postemergence, scale 0 to 100, read-out: Plant response rating, Johnsongrass
[29] = pre-emergence, Preemergence, scale 0 to 100, read-out: Plant response rating, Johnsongrass
[30] = post-emergence, Postemergence, scale 0 to 100 (0 no effect, 100 complete control), read-out: Velvetleaf plant response rating
[31] = post-emergence, Postemergence, scale 0 to 100, read-out: Plant response rating, Velvetleaf
[32] = pre-emergence, Preemergence, scale 0 to 100, read-out: Plant response rating, Velvetleaf
[33] = post-emergence, Postemergence, scale 0 to 100 (0 no effect, 100 complete control), read-out: Lambsquarters plant response rating
[34] = post-emergence, Postemergence, scale 0 to 100, read-out: Plant response rating, Lambsquarters
[35] = pre-emergence, Preemergence, scale 0 to 100, read-out: Plant response rating, Lambsquarters
[36] = post-emergence, Postemergence, scale 0 to 100 (0 no effect, 100 complete control), read-out: Ragweed plant response rating
[37] = post-emergence, Postemergence, scale 0 to 100, read-out: Plant response rating, Ragweed
[38] = pre-emergence, Preemergence, scale 0 to 100, read-out: Plant response rating, Ragweed

## Nc1nc(C2CC2)nc(C(=O)OCc2ccccc2)c1Br [Compound 22, phenylmethyl 6-amino-5-bromo-2-cyclopropyl-4-pyrimidinecarboxylate]
[1]; [11]
  pest or weed control at 62 g/ha: 50%
  pest or weed control at 125 g/ha: 60%
[1]; [12]
  pest or weed control at 250 g/ha: 60%
  pest or weed control at 500 g/ha: 60%
[1]; pre-emergence, Preemergence, scale 0 to 100, 0 no effect, 100 complete control, read-out: Plant response rating, Bermudagrass
  pest or weed control at 62 g/ha: 0%
[1]; [13]
  pest or weed control at 125 g/ha: 50%
  pest or weed control at 250 g/ha: 50%
  pest or weed control at 500 g/ha: 90%
[2]; [14]
  pest or weed control at 62 g/ha: 10%
  pest or weed control at 125 g/ha: 10%
[2]; [15]
  pest or weed control at 250 g/ha: 20%
  pest or weed control at 500 g/ha: 25%
[2]; pre-emergence, Preemergence, scale 0 to 100, 0 no effect, 100 complete control, read-out: Plant response rating, Goosegrass
  pest or weed control at 62 g/ha: 0%
[2]; [16]
  pest or weed control at 125 g/ha: 0%
  pest or weed control at 250 g/ha: 80%
  pest or weed control at 500 g/ha: 100%
Soybean (Glycine max); [17]
  plant injury at 62 g/ha: 95%
  plant injury at 125 g/ha: 100%
Soybean (Glycine max); [18]
  plant injury at 250 g/ha: 100%
  plant injury at 500 g/ha: 100%
Soybean (Glycine max); pre-emergence, Preemergence, scale 0 to 100, 0 no effect, 100 complete control, read-out: Plant response rating, Soybean
  plant injury at 62 g/ha: 95%
Soybean (Glycine max); [19]
  plant injury at 125 g/ha: 95%
  plant injury at 250 g/ha: 100%
  plant injury at 500 g/ha: 100%
[3]; [20]
  pest or weed control at 62 g/ha: 85%
  pest or weed control at 125 g/ha: 100%
[3]; [21]
  pest or weed control at 250 g/ha: 100%
  pest or weed control at 500 g/ha: 100%
[3]; pre-emergence, Preemergence, scale 0 to 100, 0 no effect, 100 complete control, read-out: Plant response rating, Pigweed
  pest or weed control at 62 g/ha: 90%
[3]; [22]
  pest or weed control at 125 g/ha: 100%
  pest or weed control at 250 g/ha: 100%
  pest or weed control at 500 g/ha: 100%
[4]; [23]
  pest or weed control at 62 g/ha: 90%
  pest or weed control at 125 g/ha: 90%
[4]; [24]
  pest or weed control at 250 g/ha: 100%
  pest or weed control at 500 g/ha: 100%
[4]; pre-emergence, Preemergence, scale 0 to 100, 0 no effect, 100 complete control, read-out: Plant response rating, Cocklebur
  pest or weed control at 62 g/ha: 90%
[4]; [25]
  pest or weed control at 125 g/ha: 95%
  pest or weed control at 250 g/ha: 100%
  pest or weed control at 500 g/ha: 100%
[5]; [26]
  pest or weed control at 62 g/ha: 90%
[5]; 125 g ai/ha, scale 0 to 100
  pest or weed control at 125 g/ha: 95%
[5]; 250 g ai/ha, scale 0 to 100
  pest or weed control at 250 g/ha: 100%
[5]; 500 g ai/ha, scale 0 to 100
  pest or weed control at 500 g/ha: 100%
Kochia (Kochia scoparia); 62 g ai/ha, scale 0 to 100 (0 no effect, 100 complete control), read-out: Kochia plant response rating
  pest or weed control at 62 g/ha: 95%
Kochia (Kochia scoparia); 125 g ai/ha, scale 0 to 100 (0 no effect, 100 complete control), read-out: Kochia plant response rating
  pest or weed control at 125 g/ha: 100%
Kochia (Kochia scoparia); 250 g ai/ha, scale 0 to 100, read-out: Plant response rating, Kochia
  pest or weed control at 250 g/ha: 100%
Kochia (Kochia scoparia); 500 g ai/ha, scale 0 to 100, read-out: Plant response rating, Kochia
  pest or weed control at 500 g/ha: 100%
[6]; [27]
  pest or weed control at 62 g/ha: 40%
  pest or weed control at 125 g/ha: 80%
[6]; [28]
  pest or weed control at 250 g/ha: 80%
  pest or weed control at 500 g/ha: 100%
[6]; pre-emergence, Preemergence, scale 0 to 100, 0 no effect, 100 complete control, read-out: Plant response rating, Johnsongrass
  pest or weed control at 62 g/ha: 80%
[6]; [29]
  pest or weed control at 125 g/ha: 100%
  pest or weed control at 250 g/ha: 100%
  pest or weed control at 500 g/ha: 100%
[7]; [26]
  pest or weed control at 62 g/ha: 100%
[7]; 125 g ai/ha, scale 0 to 100
  pest or weed control at 125 g/ha: 100%
[7]; 250 g ai/ha, scale 0 to 100
  pest or weed control at 250 g/ha: 100%
[7]; 500 g ai/ha, scale 0 to 100
  pest or weed control at 500 g/ha: 100%
[8]; [30]
  pest or weed control at 62 g/ha: 55%
  pest or weed control at 125 g/ha: 60%
[8]; [31]
  pest or weed control at 250 g/ha: 90%
  pest or weed control at 500 g/ha: 95%
[8]; pre-emergence, Preemergence, scale 0 to 100, 0 no effect, 100 complete control, read-out: Plant response rating, Velvetleaf
  pest or weed control at 62 g/ha: 90%
[8]; [32]
  pest or weed control at 125 g/ha: 95%
  pest or weed control at 250 g/ha: 100%
  pest or weed control at 500 g/ha: 100%
[9]; [33]
  pest or weed control at 62 g/ha: 90%
  pest or weed control at 125 g/ha: 95%
[9]; [34]
  pest or weed control at 250 g/ha: 95%
  pest or weed control at 500 g/ha: 95%
[9]; pre-emergence, Preemergence, scale 0 to 100, 0 no effect, 100 complete control, read-out: Plant response rating, Lambsquarters
  pest or weed control at 62 g/ha: 100%
[9]; [35]
  pest or weed control at 125 g/ha: 100%
  pest or weed control at 250 g/ha: 100%
  pest or weed control at 500 g/ha: 100%
[10]; [36]
  pest or weed control at 62 g/ha: 80%
  pest or weed control at 125 g/ha: 85%
[10]; [37]
  pest or weed control at 250 g/ha: 90%
  pest or weed control at 500 g/ha: 90%
[10]; pre-emergence, Preemergence, scale 0 to 100, 0 no effect, 100 complete control, read-out: Plant response rating, Ragweed
  pest or weed control at 62 g/ha: 90%
[10]; [38]
  pest or weed control at 125 g/ha: 100%
  pest or weed control at 250 g/ha: 100%
  pest or weed control at 500 g/ha: 100%
